In patent publication US20030181436A1, “Treatment for AIDS, HIV, and other related diseases and compounds for use therewith” (priority 2001, published 2003):
≈ marks a conversion by molar mass, not a printed value. Like-named read-outs stand apart in the source and are kept apart here.

Columns and labels:
Assay type in all cases: cell-based
[1] = tested on: HIV RoJo (a clinical isolate); experiment: Chronically infected PBMCs, supernatant reverse transcriptase activity; conditions: 7 day treatment
Description: Reverse transcriptase activity was measured in cell-free supernatants. Tritiated thymidine triphosphate (NEN) (TTP) was resuspended in distilled H2O at 5 Ci/mL. Poly rA and oligo dT were prepared as a stock solution which was kept at −20° C. The RT reaction buffer was prepared fresh on a daily basis and consists of 125 μL 1.0 M EGTA, 125 μL dH2O, 110 μL 10% SDS, 50 μL 1.0 M Tris (pH 7.4), 50 μL, 1.0 M DTT, and 40 μL 1.0 M MgCl2. These three solutions were mixed together in a ratio of 2 parts TTP, 1 part poly rA:oligo dT, and 1 part reaction buffer. Ten microliters of this reaction mixture was placed in a round bottom microtiter plate and 15 μL of virus containing supernatant was added and mixed. The plate was incubated at 37° C. in a water bath with a solid support to prevent submersion of the plate and incubated for 60 minutes. Following reaction, the reaction volume was spotted onto pieces of DE81 paper, washed 5 times for 5 minutes each in a 5% sodium phosphate buffer, 2 times for 1 minute each in distilled water, 2 times for 1 minute each in 70% ethanol, and then dried. Opti-Fluor O was added to each sample and incorporated radioactivity was quantitated utilizing a Wallac 1450 Microbetaplus liquid scintillation counter.
In these studies PBMCs are infected with HIV RoJo (a clinical isolate) and a dynamic population of infected PBMCs established over a period of 2 to 3 weeks. This population of infected PBMCs was established and maintained by the addition of fresh PBMCs in a 1:1 ratio every 7 days, thus overcoming the lost of PBMCs to normal cell death processes. Thus a population of cells was established that consisted of uninfected cells, short lived infected cells and long lived infected cells. In experiments where AZT was added to prevent re-infection of the population, we typically saw a 50% reduction in infection following a 7 day treatment. This means that 50% of the virus production from the infected […] population was due re-infection. […] Thus there was a population of infected PBMCs present ([…] of the total) which survived for extended periods of time and thus met the definition of being chronically infected.

[2] = tested on: HIV; experiment: PBMC time of addition assay; conditions: addition after 32 h of infection
From the text: FIGS. 18 and 19 show the results of the time of addition assay with the K and Z compound. In time of addition assays the timed addition of compounds after initial infection allows the identification of specific stages of virus replication. This is seen with the positive control compound AZT. AZT is a reverse transcriptase inhibitor. […] Thus it has an antiviral target that is occurring after completion of reverse transcription. […] In general since this time of addition uses multiple rounds of infection in the PBMCs versus a single round in cell lines systems, lower concentrations of compound will often shift the curve to the left. This is seen in FIG. 18.

[3] = tested on: HIV-1 attachment to HeLa CD4 LTR B-gal cells; experiment: Inhibition of attachment assay; conditions: for IC50: attachment assay
Description: (§1) The attachment assay was performed with the HeLa CD4 LTR B-gal cells available from the AIDS Research and Reference Reagent Repository. […] HeLa CD4 LTR B-gal cells express cell surface CD4 and contain an LTR B-galactosidase reporter construct. Upon infection either the Tat protein incorporated into the virion or new Tat produced following virus integration and transcription trans-activate the LTR B-gal reporter, leading to expression of the B-galactosidase enzyme. HeLa CD4 LTR B-gal cells are routinely cultured with the required selection antibiotics and scrended for mycoplasma contamination. Twenty-four h prior to initiation of the assay cells were trypsinized, counted and 1×10^4 cells placed in a 0.2 cm well in media without selection antibiotics. Media was removed and compound media placed on the cells and incubated for 15 to 30 min at 37° C. A known titer of virus was then added to the wells and the incubation continued for 1 h. At the end of the incubation the wells were washed 6 times with media and the culture continued for 48 h. At 48 h the wells were washed one time with PBS and B-galactosidase enzyme expression determined by chemiluminescence per manufacturers instructions (Tropix Gal-screen TM, Tropix, Bedford, Mass.). Compound toxicity was monitored on sister plates using MTS dye reduction. (See Tables 14 through 16 and FIGS. 21 and 22).

[4] = tested on: HeLa CD4 LTR B-gal cells; experiment: Attachment assay, toxicity on sister plates by MTS; conditions: for TC50: attachment assay
Description: as §1, with “reduction.” for “reduction. (See Tables 14 through 16 and FIGS. 21 and 22).”

[5] = tested on: HeLa CD4 LTR β-gal cells; experiment: Cytotoxicity for HeLa CD4 LTR β-gal cells
Description: At assay termination the assay plates were stained with the soluble tetrazolium-based dye MTS (CellTiter® Reagent, Promega) to determined cell viability and quantify compound toxicity. […] At termination of the assay 20 μL of MTS reagent was added per well. The wells were incubated for 4 h at 37° C., 5% CO2. Adhesive plate scalers were used in place of the lids, the sealed plate was inverted several times to mix the soluble formazan product and the plate was read spectrophotometrically at 490 nm with a 650 nm reference wavelength on a Molecular Devices Vmax plate reader.
This cell line represents one of 3 standard models for performing time of addition assays.

## Cc1cn([C@H]2C[C@H](N=[N+]=[N-])[C@@H](CO)O2)c(=O)[nH]c1=O [AZT, reference compound]
[1]
  reduction in infection: 50%
[2]
  effect on virus replication: no significant effect

## COc1cc(-c2ccc(/N=N/c3ccc4c(S(=O)(=O)O)cc(S(=O)(=O)O)c(N)c4c3O)c(OC)c2)ccc1/N=N/c1ccc2c(S(=O)(=O)O)cc(S(=O)(=O)O)c(N)c2c1O [Chicago Sky Blue]
[3]; CONC 0.032
  % VC: 90.6%
  RLU (Relative Light Units) MEAN: 127754.7 RLU
[3]; CONC 0.1
  % VC: 74.5%
  RLU (Relative Light Units) MEAN: 105105.3 RLU
[3]; CONC 0.32
  % VC: 48.2%
  RLU (Relative Light Units) MEAN: 67955.7 RLU
[3]; CONC 1
  % VC: 10.9%
  RLU (Relative Light Units) MEAN: 15363.3 RLU
[3]; CONC 3.2
  % VC: 8.3%
  RLU (Relative Light Units) MEAN: 11753.3 RLU
[3]; CONC 10
  % VC: 8.0%
  RLU (Relative Light Units) MEAN: 11266.7 RLU
[3]; Human immunodeficiency virus 1, HeLa, read-out: IC50
  IC50: 0.3 µg/mL (≈ 0.332 µM)
[3]; listed as CHICAGO SKY BLUE
  IC50: IC50 (μG/mL) = 0.30 μg/mL
[4]; CONC 0.032
  % CC: 93.3%
  TOXICITY VALUES (Cell Titer) MEAN: 1.259 O. D.
[4]; CONC 0.1
  % CC: 80.8%
  TOXICITY VALUES (Cell Titer) MEAN: 1.090 O. D.
[4]; CONC 0.32
  % CC: 84.7%
  TOXICITY VALUES (Cell Titer) MEAN: 1.142 O. D.
[4]; CONC 1
  % CC: 82.6%
  TOXICITY VALUES (Cell Titer) MEAN: 1.115 O. D.
[4]; CONC 3.2
  % CC: 83.3%
  TOXICITY VALUES (Cell Titer) MEAN: 1.123 O. D.
[4]; CONC 10
  % CC: 73.3%
  TOXICITY VALUES (Cell Titer) MEAN: 0.989 O. D.
[4]
  TC50: >10 µg/mL
[4]; listed as CHICAGO SKY BLUE
  TC50: TC50 (μG/mL) = >.10 μg/mL

## C[S+](C)[O-] [DMSO]
[5]; dilution 1:50
  % CC: 111.0%
  TOXICITY VALUES (Cell Titer) MEAN: 1.167 O. D.
[5]; dilution 1:1600
  % CC: 103.2%
  TOXICITY VALUES (Cell Titer) MEAN: 1.085 O. D.
[5]; dilution 1:5000
  % CC: 105.9%
  TOXICITY VALUES (Cell Titer) MEAN: 1.113 O. D.
[5]; dilution 1:16000
  % CC: 99.1%
  TOXICITY VALUES (Cell Titer) MEAN: 1.042 O. D.
[5]; dilution 1.500
  % CC: 101.0%
  TOXICITY VALUES (Cell Titer) MEAN: 1.062 O. D.
[5]; dilution 11110
  % CC: 111.0%
  TOXICITY VALUES (Cell Titer) MEAN: 1.167 O. D.
